Experiment in all cases: NCI-60 cell line screen, 48 h
Test [1] has as its system 786-0 renal.
In test [2] the test system is ACHN renal.
Test [3] relates to BT-549 breast.
Test [4] concerns HCC-2998 colon.
The subject of test [5] is HT29 colon.
For test [6], the system named is M14 melanoma.
The subject of test [7] is RPMI-8226 leukemia.
Test [8] concerns SF-295 CNS.
In test [9] the test system is SK-MEL-2 melanoma.
Test [10] relates to SK-MEL-5 melanoma.

We go through eleven compounds from PubChem BioAssay (NCI).

Structures are written as SMILES. Several values for one entry are separate records, joined by “and”; a condition that tells them apart may be missing. Equal entries are not always repeated.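 In this assay, cells in 96-well plates receive the compound at five concentrations for 48 hours. Endpoints are linearly interpolated between the surrounding concentrations. At the GI50, growth is halved. At the TGI there is no net growth.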

On to `NC(=O)CCc1ccccc1Oc1nccc(-c2c(-c3ccc(F)cc3)ncn2C2CCNCC2)n1`, for which the GI50 in [1], in test [2], in [3], in [4], in [5] and in test [6] was more than 25 µM throughout. Further, the GI50 in [7], in [8], in [9] and in test [10] was more than 25 µM each time. The TGI in test [1], in test [2], in [3], in [4], in test [5] and in test [6] was more than 25 µM throughout. The TGI in test [7], in test [8], in [9] and in test [10] was more than 25 µM throughout.

As to `C=C(CN1CCN(c2ccccc2C(F)(F)F)CC1)c1ccc(C(=O)Nc2ccccc2N)cc1`, the GI50 in test [1] is 2.36 µM; in test [2], 7.19 µM; in [3] it was 2.67 µM; in test [4], 3.83 µM; in test [5], 4.09 µM; in [6] it was 4.47 µM. For the same compound, the GI50 in test [7] is 0.164 µM; in test [8] it was 5.98 µM; in test [9] it was 10.3 µM; in [10] it was 3 µM. Moreover, the TGI is 15.1 µM in [1]; more than 100 µM in [2]; 14 µM in [3]; 13.9 µM in test [4]; 20.2 µM in [5]; more than 100 µM in [6]. The TGI in test [7] was 1.01 µM; in [8], 42.9 µM; in [9], more than 95.1 µM; in test [10], 9.83 µM.

Turning to `O=Cc1ccc(-c2ccc(-c3ccc(C=O)o3)[se]2)o1`, the GI50 in test [1] was 53.2 µM; in [2] it was 45.5 µM; in [3] it was more than 100 µM; in test [4], more than 100 µM; in test [5], more than 100 µM; in test [6] it was more than 100 µM. In addition, the GI50 in test [7] is more than 100 µM; in test [8] it was more than 46.2 µM; in [9] it was more than 100 µM; in test [10], more than 100 µM. For the same compound, the TGI in test [1], in test [2], in [3], in test [4], in test [5] and in [6] was more than 100 µM each time. Moreover, the TGI in test [7] was more than 100 µM; in test [8] it was more than 65.6 µM; in [9] it was more than 100 µM; in [10] it was more than 100 µM.

Turning to `CCOc1cc(/C=C/C(=O)C(C(=O)/C=C/c2ccc(OC(=O)CNc3nnc(C)s3)c(OCC)c2)C(=O)CNc2nnc(C)s2)ccc1OC(=O)CNc1nnc(C)s1`, the GI50 in [1] was 2.16 µM; in test [2], 1.77 µM; in test [3] it was 1.98 µM; in [4] it was 1.69 µM; in test [5] it was 0.515 µM; in test [6] it was 2.4 µM. In addition, the GI50 in [7] was 0.34 µM; in [8] it was 3.08 µM; in test [9], 2.02 µM; in test [10] it was 1.71 µM. Further, the TGI stood at 5.98 µM in test [1]; 3.42 µM in test [2]; 5.33 µM in test [3]; 3.33 µM in test [4]; 1.85 µM in test [5]; 10 µM in test [6]. The TGI in test [7] is more than 100 µM; in test [8], 10.7 µM; in test [9] it was 5 µM; in [10] it was 3.29 µM.

Regarding `CCCCN(CC)CCCCCCCCCCN1CCCc2cc(OC)ccc21`, the GI50 in test [1] was 2.03 µM; in test [2] it was 3.91 µM; in [3], 3.63 µM; in [4], 2.32 µM; in test [5], 1.46 µM; in test [6], 2.11 µM. The GI50 in test [7] was 2.15 µM; in test [8] it was 1.8 µM; in [9], 1.95 µM; in test [10], 1.73 µM. The TGI was found to be 3.94 µM in test [1]; 14.9 µM in test [2]; 12.5 µM in test [3]; 6.38 µM in test [4]; 4.29 µM in [5]; 4.99 µM in test [6]. For the same compound, the TGI in test [7] came to 4.79 µM; in test [8], 3.72 µM; in test [9], 4.15 µM; in test [10] it was 3.12 µM.

On to `CN(CSc1ccc(Cl)cc1)c1ccc(CSc2ccc(Cl)cc2)cc1`, for which the GI50 was 1.8 µM in [1]; 6.28 µM in [2]; 1.16 µM in [3]; 4.81 µM in test [4]; 12.2 µM in test [5]; 4.09 µM in test [6]. For the same compound, the GI50 in test [7] was 2.11 µM; in test [8] it was 2.86 µM; in test [9] it was 14.2 µM; in test [10], 6.85 µM. The TGI in test [1] was determined as 11 µM; in [2], 22.3 µM; in test [3], 3.6 µM; in [4], 18.3 µM; in test [5] it was 34.2 µM; in test [6], 14.9 µM. Moreover, the TGI is more than 100 µM in test [7], 13.7 µM in [8], 36.2 µM in [9] and 19.8 µM in [10].

Regarding `NC(=N\N=C/c1ccc(Cl)cc1Cl)/C(N)=N\N=C/c1ccc(Cl)cc1Cl`, the GI50 in test [1] was 1.32 µM; in test [2], 0.576 µM; in test [3], 45.3 µM; in test [4], more than 94.7 µM; in test [5], more than 100 µM; in test [6] it was more than 83.1 µM. In addition, the GI50 in test [7] was more than 100 µM; in [8], 2.84 µM; in test [9], more than 57.1 µM; in test [10], more than 100 µM. In addition, the TGI in test [1] is 16.7 µM; in test [2] it was 15.6 µM; in test [3], more than 93.2 µM; in test [4], more than 100 µM; in [5] it was more than 100 µM; in test [6], more than 100 µM. The TGI was more than 100 µM in [7], 89.8 µM in test [8], more than 93.6 µM in test [9] and more than 100 µM in [10].

As for `C=C1C(=O)OC2CC1C(OC(C)=O)C/C(C)=C/CC/C(C)=C\CCC2(C)O` (configuration not stated), the TGI in [1] was 10.5 µM and 19.9 µM; in test [2], 14.9 µM and 7.78 µM; in [3] it was 15.5 µM and 5.35 µM; in test [4] it was 17.5 µM and 21.1 µM; in [5], 6.44 µM and 18 µM; in test [6] it was > 36.9 µM and 29.6 µM. For the same compound, the TGI is 7.9 µM and 7.55 µM in [7]; 46.8 µM and 37 µM in test [8]; 22.5 µM and > 100 µM in test [9]; 24 µM and 10.8 µM in [10]. The GI50 in [3] is 4.31 µM and 2.05 µM; in [5], 1.69 µM and 4.87 µM; in test [9], 8.67 µM and 21.4 µM; in [10] it was 6.82 µM and 2.88 µM.

With `O=C(/C=C/c1cccc(S(=O)(=O)Nc2ccccc2)c1)NO`, the GI50 in test [1] is 2.17 µM and 0.934 µM; in test [2], 0.429 µM and 0.422 µM; in test [3] it was 3.53 µM and 2.16 µM; in test [4] it was 0.519 µM and 0.258 µM; in test [5] it was 0.25 µM and 1.15 µM; in test [6], 0.451 µM and 0.441 µM. Besides, the GI50 in test [7] is 0.248 µM; in test [8] it was 0.579 µM and 0.603 µM; in test [9] it was 2.34 µM and 5.73 µM. Besides, the TGI in [1] was 12.6 µM and 11.2 µM; in test [2], 3.22 µM and 8.44 µM; in test [3] it was 44.5 µM and 71.9 µM; in test [4], 2.48 µM and 1.91 µM; in test [5] it was 15.9 µM and > 15.8 µM; in [6], 12.9 µM and 12.5 µM. In addition, the TGI in [8] was 3.12 µM and 3.97 µM; in test [9] it was 15.6 µM and > 71.2 µM; in test [10], 1.03 µM and 0.192 µM.

Turning to `COc1ccc(C2CC(c3ccc4ccccc4c3)=NN2c2nc(O)c(C3=c4cc(OC)ccc4=NC3=O)s2)cc1` (configuration not stated), the GI50 in test [1] is 0.028 µM; in [2] it was 0.0678 µM; in test [3], 0.978 µM; in [4], 0.0762 µM; in [5] it was 0.0458 µM; in test [6] it was 0.072 µM. For the same compound, the GI50 was 0.27 µM in [7], 0.0608 µM in test [8], 0.178 µM in test [9] and 0.0899 µM in test [10]. The TGI in test [1] is 0.0869 µM; in [2] it was 0.419 µM; in test [3], 17.5 µM; in test [4], 0.265 µM; in test [5], more than 100 µM; in test [6] it was 0.726 µM. For the same compound, the TGI is 3.93 µM in test [7], 0.165 µM in test [8], 0.497 µM in test [9] and 0.243 µM in test [10].

Regarding `CS(=N)(=O)CCC(N)P(=O)(O)O` (configuration not stated), the TGI in test [1], in [2], in test [3], in test [4], in test [5] and in test [6] was more than 100 µM each time. Besides, the TGI in test [7], in [8], in [9] and in test [10] was more than 100 µM each time.
